According to patent publication US8658206B2, “Compositions comprising strontium and vitamin D and uses thereof” (Mokwalo SA, priority 2004, dated 2014):

Key:
[1] = Determination of solubility velocity by ICP-MS in 0.1 M hydrochloride solution; details: 0.1 M HCl, 37° C., 84Sr signal by ICP-MS
Method: Determination of Solubility Velocity by Inductively Coupled Plasma-Mass Spectrometry (ICP-MS)
The solubility is measures as strontium signals over time using ICP-MS. Using this technique it is possible to follow multiple isotopes of the element, here, ^84Sr, ^86Sr, ^87Sr and ^88Sr.
A hydrochloride solution (0.1 M) was added to the sample and the sample then immediately enters, by means of a peristaltic pump, the atomizer of the ICP-MS apparatus. The pump speed was 4.4 ml/min.
The hydrochloride concentration of 0.1 M equals the concentration of HCl in the stomach. The temperature of the HCl solution was 37° C.
The solubility velocity of the compound is obtained by analysing the slopes of the front curves. The first curve represents the experiment and the second curve the apparatus, thus the difference between the slopes of the two curves are used to calculate the solubility velocity by division with the top value.

[2] = relative to cholecalciferol itself; cited from earlier work

Structure (SMILES) | solubility velocity in hydrochloride [1] | times more effective in terms of bioavailability than cholecalciferol [2]
[Cl-].[Cl-].[Sr+2] [strontium chloride] | very high | –
C=C1CC[C@H](O)C/C1=C/C=C1\CCC[C@]2(C)[C@@H]([C@H](C)CCCC(C)(C)O)CC[C@@H]12 [25-hydroxycholecalciferol] | – | five
C=C1/C(=C\C=C2/CCC[C@]3(C)[C@@H]([C@H](C)CCCC(C)(C)O)CC[C@@H]23)C[C@@H](O)C[C@@H]1O [1,25 dihydroxycholecalciferol] | – | ten
